Laboratory results from patent EP2359816B1, “Aripiprazole formulations” (Arven Ilac Sanayi ve Ticaret A.S., priority 2010, dated 2011).

Experiment: physchem
Assay type: physicochemical
From the text: The following results were obtained in our solubility study of aripiprazole monohydrate.

Q: Which dissolved (pH 1.2 (0.1 N NCl)) does the source give for `O=C1CCc2ccc(OCCCCN3CCN(c4cccc(Cl)c4Cl)CC3)cc2N1` [aripiprazole monohydrate, 7-[4-[4-(2,3-dichlorophenyl)-1-piperazinyl]butoxy]-3,4-dihydrocarbostyril] here?
A: 25 mg per 250 mL

Q: And the dissolved (pH 1.2 (USP buffer))?
A: 9.75 mg per 250 mL

Q: What about the “Cmax (mg/250 mL) (Aripiprazole)” value (pH 4.5) of the same compound?
A: 8.25 mg/250 mL

Q: What about the dissolved (pH 4.5) of the same compound?
A: 8.25 mg per 250 mL

Q: What about the solubility (pH 4.5, aqueous buffer, Maximum Solubility (Cmax mg/mL)) of the same compound?
A: 33 µg/mL

Q: And the “Cmax (mg/250 mL) (Aripiprazole)” value (pH 6.8)?
A: 0 mg/250 mL

Q: And the “Maximum Solubility (Cmax mg/mL)” value (pH 6.8)?
A: 0 mg/mL

Q: And the dissolved (pH 6.8)?
A: not dissolved
